For data set [1], the target named is T1, Cdr1p (Cdr1p-GFP) (Candida albicans, UniProt Q5ANA3).
T1 construct: gene CDR1; plasmid pPSCDR1-GFP integrated at PDR5 locus of S. cerevisiae AD1-8u-; plasma membrane fractions or cells
In words: R6G binding, from drug transport kinetics of overexpressing yeast (method not detailed). The format is cell-based.

For data set [2], the target named is T2, Cdr1p (Cdr1p-GFP) (Candida albicans, UniProt Q5ANA3, DEL903-903).
T2 construct: gene CDR1
Description: cell-based.
Description: (§1) R6G binding, from drug transport kinetics of overexpressing yeast (method not detailed) on Cdr1p (Cdr1p-GFP)

Data set [3] addresses T3, Cdr1p (Cdr1p-GFP) (Candida albicans, UniProt Q5ANA3, DEL905-905).
T3 construct: gene CDR1
In words: cell-based.
Description: as §1

The subject of data set [4] is Nc1ncnc2c1ncn2[C@@H]1O[C@H](COP(=O)(O)OP(=O)(O)OP(=O)(O)O)[C@@H](O)[C@H]1O. Description: cells, lysate or membranes. Conditions: 30 °C, Mg-ATP, GFP-tagged wild type.
Description: oligomycin-sensitive ATPase, Pi release, plasma membrane fraction; Lineweaver-Burk on Cdr1p (Cdr1p-GFP)

`CCN=c1cc2oc3cc(NCC)c(C)cc3c(-c3ccccc3C(=O)OCC)c-2cc1C` [Rhodamine 6G]: the Kd on Cdr1p (Cdr1p-GFP) [1] was 9 ± 1.8 µM; at Cdr1p (Cdr1p-GFP) [2], 11.9 ± 1.9 µM; at Cdr1p (Cdr1p-GFP) [3], 25 ± 2 µM.
For the compound “Cdr1p (Cdr1p-GFP) (Candida albicans SC5314)”, in data set [4], the Michaelis-Menten constant (Km) was 2100 ± 500 µM and the Vmax came to 0.105 µmol/min/mg.
